This note sets out measurements from patent publication US20230017312A1, “CENTRALLY ACTIVE P38ALPHA INHIBITING COMPOUNDS” (Synovo GmbH, priority 2019, published 2023).

In series [1] the test system is IL-6. The series is described as follows: LPS-stimulated IL-6 production, BL6 Blood. The series is classed as cell-based. The note with it: compound 100 nM.
Series [2] relates to TNFa. The series can be described thus: LPS-stimulated TNFa production, hBuffy Coat. The series is classed as cell-based, human. Conditions: compound 1 nM. How it is done:
(§1) The substances can be tested by mixing them with immune cells subject to stimulus and measuring the resulting inflammatory response. A standard assay involves the application of lipopolysaccharide (e.g. 10 μg/mL) to human blood derived immune cells and then detecting the concentration of cytokines (IL-6, TNFa) after 24 h. When tested in this way, the described compounds have the following effects as recorded in Table 2.

Series [3] deals with TNFa. The series can be described thus: LPS-stimulated TNFa production, BL6 Blood. The series is classed as cell-based. Conditions: compound 100 nM.
For series [4], the system named is IL-6. The series is described as follows: LPS-stimulated IL-6 production, hBuffy Coat. The series is classed as cell-based, human. Conditions: compound 1 nM. How it is done:
as §1

In series [5] the test system is IL-6. The series can be described thus: LPS-stimulated IL-6 production, spleen. Conditions: compound 10 nM. The series is classed as cell-based.
In series [6] the test system is TNFa. The series is described as follows: LPS-stimulated TNFa production, spleen. The series is classed as cell-based. Conditions: compound 10 nM.

As for `C[S+]([O-])c1ccc(-c2nc(-c3ccncc3)c(-c3ccc(F)cc3)[nH]2)cc1` (stereo not shown) [SB203580], the “Amount of cytokine produced as % control: IL-6 BL6 Blood (500 ng LPS) 100 nM” value with IL-6 [1] came to 22 % control. Further, the “Amount of cytokine produced as % control: TNFa hBuffy Coat (100 ng LPS) 1 nM” value in the series on TNFa [2] is listed as 85 % control. The “Amount of cytokine produced as % control: TNFa BL6 Blood (500 ng LPS) 100 nM” value with TNFa [3] came out at 4 % control. The “Amount of cytokine produced as % control: IL-6 hBuffy Coat (100 ng LPS) 1 nM” value in the series on IL-6 [4] is reported as 61 % control. Moreover, the “Amount of cytokine produced as % control: IL_6 Spleen (100 ng LPS) 10 nM” value in the series with IL-6 [5] is given as 10 % control. In the series on TNFa [6], the “Amount of cytokine produced as % control: TNFa Spleen (100 ng LPS) 10 nM” value came to 11 % control.

`COC(=O)c1ccc2c(c1)C(=O)c1ccc(Nc3ccc(F)cc3F)cc1OC2` [Compound 15a, 3-((2,4-Difluorophenyl)amino)-11-oxo-6,11-dihydrobenzo[b,e]oxepin-9-carboxylmethylester] gave a melting point of 162.7 °C.
